What was measured:
[1] = test system: MC38 (colon carcinoma) cells; assay: MC38 tumor model; assay type: in vivo, mice; settings: intra-tumorally 2× a week, 50 μg dose, normalized to day 0, Mann-Whitney test, P value 0.0499
Method: Mice were injected subcutaneously with 1×10^6 MC38 (colon carcinoma) cells and tumor volumes were measured on day 2, 5, 9, 12, and 16 (end of study) and normalized to day 0 values for each animal. When the mean tumor size reached approximately 80-120 mm^3, mice were randomized and treatment was started. Peptides were tested in an MC38 tumor model. FoLD01 peptide was administered intra-tumorally 2× a week (50 μg dose). Monoclonal antibodies were administered intraperitoneally 2× a week (5 mg/kg (anti-CTLA4) and 10 mg/kg (anti-PD1) dose). Statistical test used: Unpaired, non-parametric, two-tailed Mann-Whitney test. Control used: intra-tumor injection of DMSO diluted in PBS (for FoLD01 injected intra-tumorally).

PD1 = target: T1, PD1 (Homo sapiens, UniProt Q15116); assay: PATHHUNTER checkpoint signaling assay (PD1 activation / SHP1 recruitment); assay type: cell-based; settings: Jurkat cells expressing PD1 and SHP1 co-incubated with PDL1-presenting U2OS cells, 2 h RT; peptides at 20 μM and 100 μM, in duplicate; FIG. 1
T1 construct: host or cells: Jurkat cells (PD1 and SHP1 EFC fusions), co-cultured with PDL1-presenting U2OS cells
Method: Peptides were tested for their ability to inhibit the binding of PDL1 to PD1 using PATHHUNTER® checkpoint signaling assays (DiscoverX).
Jurkat cells expressing PD1 and SHP1 proteins, each fused to a fragment of enzyme fragment complementation (EFC) system, were co-incubated with PDL1-presenting U2OS cells. […] Inhibitory peptides or antibodies added to the culture would reduce the light signal.
Cells in co-culture were incubated at room temperature (RT) for 2 h (PD1 assay). The assay signal was generated using the PATHHUNTER® Bioassay Detection kit. FoLD01 (SEQ ID NO:1), LD10 (SEQ ID NO:5), and LD12 (SEQ ID NO:6) peptides were tested in duplicate at two concentrations, 20 μM and 100 μM. Peptides were dissolved in water or DMSO and diluted in assay buffer.
Microplates were read following signal generation using a PerkinElmer ENVISION™ instrument for chemiluminescent signal detection. The percentage of inhibition efficacy was calculated using the following formula, in which “RLU” means relative light units: […]

[2] = test system: IFNγ-secreting antigen-specific CD8+ T cells; assay: AdPyCS mouse model, IFNγ ELISPOT of spleen cells; assay type: in vivo; settings: mice immunized i.m. with AdPyCSP, peptide subcutaneously 1 μg, 10 μg; spleens ten days post-injection; relative to AdPyCS-only; one-way ANOVA; FIG. 2
Method: Groups of five mice were immunized intramuscularly with a recombinant replication defective adenovirus expressing the Plasmodium yoelli circumsporozoite protein (AdPyCSP) and then treated subcutaneously with peptides LD10da ([…], in which the first amino acid is a D-amino acid, 1 μg), FoLD01 (1 μg, 10 μg), or an anti-PD1 monoclonal antibody (10 μg). Ten days post-injection, mice were euthanized and individual spleens removed. The number of IFNγ-secreting antigen-specific CD8+ T cells were determined using an ELISPOT assay (FIG. 2).

[3] = test system: Pan02 (pancreatic adenocarcinoma) cells; assay: Pan02 tumor model; assay type: in vivo, mice; settings: intra-tumorally 2× a week, 50 μg dose, normalized to day 0, Mann-Whitney test
Method: Mice were injected subcutaneously with 3×10^6 Pan02 (pancreatic adenocarcinoma) cells in the right rear flank. Tumor volumes were measured at least twice weekly in two dimensions using a caliper. When the mean tumor size reached approximately 80-120 mm^3, mice were randomized and treatment was started. FoLD04 was administered intra-tumorally 2× a week (50 μg dose). Monoclonal antibodies were administered intraperitoneally 2× a week (5 mg/kg (anti-CTLA4) and 10 mg/kg (anti-PD1) dose).
Tumor volumes were measured on day 4, 7, 11, 14, 18, 21, 25 and 27 (end of study) and normalized to day 0 values for each animal. Statistical test used: Unpaired, non-parametric, two-tailed Mann-Whitney test.
Control used: intra-tumor injection of DMSO diluted in PBS (for FoLD04 injected intra-tumorally).

T1 sequence (Q15116 25-288): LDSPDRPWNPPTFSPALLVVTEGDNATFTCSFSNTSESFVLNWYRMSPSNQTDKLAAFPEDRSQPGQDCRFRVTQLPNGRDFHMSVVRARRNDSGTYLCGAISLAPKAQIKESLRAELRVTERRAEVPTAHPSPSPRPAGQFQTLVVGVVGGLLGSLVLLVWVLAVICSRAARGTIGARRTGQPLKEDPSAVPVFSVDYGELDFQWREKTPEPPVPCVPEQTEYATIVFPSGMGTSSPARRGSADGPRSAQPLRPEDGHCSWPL

Substance | tumor volume relative to intra-tumoral DMSO/PBS control [1] | inhibition of PD1-PDL1 interaction (percentage of inhibition efficacy) (PD1) | number of IFNγ-secreting antigen-specific CD8+ T cells [2] | tumor volume relative to DMSO/PBS IT control [3]
FoLD01: peptide, amino acid sequence STNQVSALRVNILFPLSQ (SEQ ID NO:1) (FoLD01 peptide) | significantly decreased tumor volume | inhibited PD1-PDL1 interaction to a greater extent than peptides LD10 and LD12 | enhances the number of antigen-specific CD8+ T cells relative to stimulation with antigen only | 
FoLD04: peptide, amino acid sequence QVSALRVNILF (SEQ ID NO:4) (listed as Fusarium oxysporum) |  |  |  | significantly decreased tumor volume
